Structures can show the parent of a compound that is named as a salt.
Biological target: Bruton's tyrosine kinase (BTK) (Homo sapiens, UniProt Q06187)
Assay: ADP-Glo in vitro kinase assay with BTK enzyme (Promega)
Format: biochemical

Bruton's tyrosine kinase (BTK), sequence (Q06187 2-659): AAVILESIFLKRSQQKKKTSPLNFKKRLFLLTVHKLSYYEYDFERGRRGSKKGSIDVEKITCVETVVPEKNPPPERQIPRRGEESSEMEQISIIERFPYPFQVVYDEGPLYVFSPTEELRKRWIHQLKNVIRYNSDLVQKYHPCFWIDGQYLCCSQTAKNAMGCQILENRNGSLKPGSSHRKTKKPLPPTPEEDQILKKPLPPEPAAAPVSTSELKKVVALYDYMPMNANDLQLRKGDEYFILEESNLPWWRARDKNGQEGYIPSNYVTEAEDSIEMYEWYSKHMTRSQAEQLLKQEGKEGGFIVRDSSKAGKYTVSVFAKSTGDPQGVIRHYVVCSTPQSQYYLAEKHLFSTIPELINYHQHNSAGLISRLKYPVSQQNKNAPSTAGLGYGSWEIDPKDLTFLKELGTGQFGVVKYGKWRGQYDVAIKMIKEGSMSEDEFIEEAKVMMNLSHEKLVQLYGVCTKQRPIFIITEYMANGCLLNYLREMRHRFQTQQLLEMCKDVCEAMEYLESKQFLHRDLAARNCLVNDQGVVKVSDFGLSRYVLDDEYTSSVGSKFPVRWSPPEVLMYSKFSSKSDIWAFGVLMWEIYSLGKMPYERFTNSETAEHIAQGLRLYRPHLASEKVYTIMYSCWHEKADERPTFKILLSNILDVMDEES

inhibition at 1 µM: 49.8%
Structure (SMILES): N=C(N)SCc1ccc(CN2C(=O)C(=Cc3ccc(Oc4cccc(Cl)c4Cl)cc3)c3cc([N+](=O)[O-])ccc32)cc1 [compound 6, 4-((3-(4-(2,3-dichlorophenoxy)benzylidene)-5-nitro-2-oxoindolin-1-yl)methyl) benzyl carbamimidothioate hydrobromide]

From article PMC9500300, “Development of a novel Bruton’s tyrosine kinase inhibitor that exerts anti-cancer activities potentiates response of chemotherapeutic agents in multiple myeloma stem cell-like cells” (Frontiers in Pharmacology, 2022)
